Measured values published in patent publication US5989875A, “Method of process for producing L-lysine by fermentation” (priority 1995, dated 1999).
Converted amounts (≈) assume the structure as drawn.

Assays:
GT3/pLYSC1 strain = assay: Growth of GT3/pLYSC1 on M9 media containing L-lysine or AEC; assay type: cell-based, E. coli; settings: for Growth of GT3/pLYSC1: M9 agar
Procedure: (§1) A transformed strain obtained by introducing pLYSC1 into the AK completely deficient strain, E. coli GT3 was designated as GT3/pLYSC1, and a transformed strain obtained by introducing pLYSC2 into the E. coli GT3 was designated as GT3/pLYSC2. A considerable amount of L-lysine was added to the minimal medium M9, and the GT3/pLYSC1 strain and the GT3/pLYSC2 strain were each cultivated. Both of the GT3/pLYSC1 strain and the GT3/pLYSC2 strain harbor plasmids containing the wild type lysC, in which AKIII encoded by lysC on the plasmids is a sole AK. The wild type AKIII as the sole AK is inhibited by L-lysine in the presence of a considerable amount of L-lysine.
(§2) The GT3/pLYSC1 strain and the GT3/pLYSC2 strain were cultivated on M9 agar plate media containing various concentrations of L-lysine or AEC, respectively. Growth inhibitory concentrations by L-lysine and AEC were examined, and a selection condition was investigated for a strain harboring a plasmid containing lysC*.
(§3) In this table, + indicates growth of transformant, ± indicates a little growth, and - indicates no growth.

GT3/pLYSC2 strain = assay: Growth of GT3/pLYSC2 on M9 media containing L-lysine or AEC; assay type: cell-based, E. coli
Procedure: as §1, §2, §3

AKIII = biological target: T1, AKIII (Escherichia coli, UniProt P08660); assay: Enzyme activity of AKIII and inhibition by L-lysine (cell-free extract); assay type: biochemical, E. coli
T1 construct: made in house; host or cells: E. coli GT3 (AKI, II, III deficient) transformed with pLYSC1 or its mutant plasmids; cell-free extract, ammonium sulfate pellet redissolved
Excerpt: No. 24, No. 43, No. 48, No. 60, No. 80, No. 117, No. 126, No. 149, No. 150, No. 156, No. 158, No. 167, No. 169 and No. 172 were selected as representative strains of the aforementioned 14 groups. Mutant plasmids derived from pLYSC1 were recovered from each of them, and designated as pLYSC1*24, pLYSC1*43, pLYSC1*48, pLYSC1*60, pLYSC1*80, pLYSC1*117, pLYSC1*126, pLYSC1*149, pLYSC1*150, pLYSC1*156, pLYSC1*158, pLYSC1*167, pLYSC1*169 and pLYSC1*172, respectively. An AK completely deficient strain GT3 was transformed with them and the wild type pLYSC1. A cell-free extract was prepared from each of transformed strains, and the enzyme activity of AKIII was measured.
The cell-free extract (crude enzyme solution) was prepared as follows. A transformed strain was cultivated in a 2 x TY medium, and collected at an OD660 of about 0.8. Cells were washed with 0.02 M KH2 PO4 (pH 6.75)-0.03 M β-mercaptoethanol under a condition of 0° C., and the cells were disrupted by sonication (0° C., 100 W, 30 minutes×4). A disrupted cell solution was centrifuged at 33 krpm for 1 hour under a condition of 0° C. to obtain a supernatant to which ammonium sulfate was added to give 80% saturation. After centrifugation, a pellet was dissolved in 0.02 M KH2 PO4 (pH 6.75)-0.03 M β-mercaptoethanol, and stored at 0° C. overnight.
The enzyme activity of AKIII was measured in accordance with a method of Stadtman et al. (Stadtman, E. R., Cohen, G. N., LeBras, G., and Robichon-Szulmajster, H., J. Biol. Chem., 236, 2033 (1961)). Namely, a reaction solution having the following composition was incubated at 27° C. for 45 minutes, and an FeCl3 solution (2.8 N HCl 0.4 ml+12% TCA 0.4 ml+5% FeCl3 ·6H2 O/0.1 N HCl 0.7 ml) was added thereto to develop a color, and it was centrifuged followed by measurement of absorbance of a supernatant at 540 nm. The activity was indicated by an amount of hydroxamic acid generated per minute (1 U=1 μmol/min). The molar absorption coefficient was 600. Potassium aspartate was removed from the reaction solution to be used as a blank.
In measurement of the enzyme activity of AK, various concentrations of L-lysine were added to the enzyme reaction solution and the degree of inhibition by L-lysine was examined.
On the contrary, although the mutant AKIII's obtained this time had various degrees of desensitization, inhibition by L-lysine was desensitized in all of 14 species. […] The specific activity based on total protein, which might be affected by growth situations of cell and preparation of samples, was equal to or more than that of the wild type in almost all cases, and there was little problem of decrease in activity due to the introduction of mutation (Table 3). According to this fact, it was expected that an active center of AKIII was independent from a regulatory site by L-lysine with each other. In Table 3, the inhibition desensitization degree (%) refers to an AK activity in the presence of 100 mM of L-lysine compared with an AK activity in the absence of L-lysine in the reaction solution. The heat stability (%) refers to a ratio of activity maintenance after a treatment at 55° C. for 1.5 hour.

DDPS = assay: Enzyme activity of DDPS and inhibition by L-lysine (cell-free extract); assay type: biochemical, E. coli; settings: for Inhibition of DDPS by L-lysine: various concentrations of L-lysine added, FIG. 2
Procedure: Mutant pdapA2's were recovered from the 36 strains described above. A dapA-deficient strain, JE7627 was transformed with them and the wild type pdapA2, respectively. A cell-free extract was prepared from each of the transformed strains, and the enzyme activity of DDPS was measured.
The cell-free extract (crude enzyme solution) was prepared as follows. A transformed strain was cultivated in a 2 x TY medium (1.6% Bacto trypton, 1% Yeast extract, 0.5% NaCl), and collected at an optical density at 660 nm (OD660) of about 0.8. A cell pellet was washed with 0.85% NaCl under a condition of 0° C., and suspended in 20 mM potassium phosphate buffer (pH 7.5) containing 400 mM KCl. The cells were disrupted by sonication (0° C., 200 W, 10 minutes). A disrupted cell solution was centrifuged at 33 krpm for 1 hour under a condition of 0° C. to obtain a supernatant to which ammonium sulfate was added to give 80% saturation to be stored at 0° C. overnight followed by centrifugation. A pellet was dissolved in 20 mM potassium phosphate buffer (pH 7.5)-400 mM KCl.
The enzyme activity of DDPS was measured in accordance with a method of Yugari et al. (Yugari, Y. and Gilvarg, C., J. Biol. Chem., 240, 4710 ([…])). Namely, the absorbance of a reaction solution having the following composition was measured at 37° C. with a spectrophotometer at a wavelength of 270 nm in a time-course manner, and generated dihydrodipicolinate was measured. Sodium pyruvate was removed from the reaction system to be used as a blank.
In measurement of the enzyme activity of DDPS, various concentrations of L-lysine were added to the enzyme reaction solutionand the degree of inhibition by L-lysine was examined.

T1 sequence (P08660 2-449): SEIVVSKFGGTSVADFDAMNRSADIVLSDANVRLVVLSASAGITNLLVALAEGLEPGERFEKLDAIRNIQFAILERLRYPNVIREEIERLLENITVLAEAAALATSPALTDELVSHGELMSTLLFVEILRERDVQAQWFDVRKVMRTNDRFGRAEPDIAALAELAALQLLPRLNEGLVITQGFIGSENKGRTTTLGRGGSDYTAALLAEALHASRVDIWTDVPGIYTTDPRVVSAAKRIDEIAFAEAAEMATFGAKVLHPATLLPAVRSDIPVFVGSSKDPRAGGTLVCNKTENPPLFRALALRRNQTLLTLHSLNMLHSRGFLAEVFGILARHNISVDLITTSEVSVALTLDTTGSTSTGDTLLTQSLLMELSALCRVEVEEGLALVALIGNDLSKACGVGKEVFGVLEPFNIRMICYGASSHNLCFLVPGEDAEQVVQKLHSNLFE

Q: With `NCCCC[C@H](N)C(=O)O` [L-lysine] as the molecule, how does the MIC (GT3/pLYSC1 strain; Escherichia coli, GT3, read-out: Allotment of addition in which growth was completely suppressed) read?
A: Its MIC is 200 µM (≈ 29.2 µg/mL).

Q: And the “Growth in minimal medium M9 with a considerable amount of L-lysine” value (GT3/pLYSC1 strain; GT3/pLYSC1)?
A: Its value is “suppressed in growth”.

Q: And the “Growth of GT3/pLYSC1” value (GT3/pLYSC1 strain; L-lysine 0.2 mM)?
A: Its value is “-”.

Q: What about the “Growth of GT3/pLYSC1” value (GT3/pLYSC1 strain; L-lysine 0.4 mM) of the same molecule?
A: Its value is “-”.

Q: What about the “Growth of GT3/pLYSC1” value (GT3/pLYSC1 strain; L-lysine 0.8 mM) of the same molecule?
A: Its value is “-”.

Q: What about the “Growth of GT3/pLYSC1” value (GT3/pLYSC1 strain; L-lysine 1.5 mM) of the same molecule?
A: Its value is “-”.

Q: What about the “Growth of GT3/pLYSC1” value (GT3/pLYSC1 strain; L-lysine 3 mM) of the same molecule?
A: Its value is “-”.

Q: And the “Growth of GT3/pLYSC1” value (GT3/pLYSC1 strain; L-lysine 6 mM)?
A: The value was “-”.

Q: What about the “Growth of GT3/pLYSC1” value (GT3/pLYSC1 strain; L-lysine 12 mM) of the same molecule?
A: The value was “-”.

Q: And the “Growth of GT3/pLYSC1” value (GT3/pLYSC1 strain; L-lysine 25 mM)?
A: Its value is “-”.

Q: What about the “Growth of GT3/pLYSC1” value (GT3/pLYSC1 strain; L-lysine 50 mM) of the same molecule?
A: Its value is “-”.

Q: And the “Growth of GT3/pLYSC1” value (GT3/pLYSC1 strain; L-lysine 100 mM)?
A: Its value is “-”.

Q: And the “Growth of GT3/pLYSC1” value (GT3/pLYSC1 strain; L-lysine 200 mM)?
A: The value was “-”.

Q: And the “Growth in minimal medium M9 with a considerable amount of L-lysine” value (GT3/pLYSC2 strain; GT3/pLYSC2)?
A: The value was “suppressed in growth”.

Q: And the “Allotment of addition up to which growth was not suppressed” value (GT3/pLYSC2 strain; GT3/pLYSC2 strain, M9 agar)?
A: Its value is 100 mM.

Q: And the “Growth of GT3/pLYSC2” value (GT3/pLYSC2 strain; M9 agar, L-lysine 0.2 mM)?
A: The value was “+”.

Q: What about the “Growth of GT3/pLYSC2” value (GT3/pLYSC2 strain; M9 agar, L-lysine 0.4 mM) of the same molecule?
A: The value was “+”.

Q: What about the “Growth of GT3/pLYSC2” value (GT3/pLYSC2 strain; M9 agar, L-lysine 0.8 mM) of the same molecule?
A: The value was “+”.

Q: And the “Growth of GT3/pLYSC2” value (GT3/pLYSC2 strain; M9 agar, L-lysine 1.5 mM)?
A: Its value is “+”.

Q: And the “Growth of GT3/pLYSC2” value (GT3/pLYSC2 strain; M9 agar, L-lysine 3 mM)?
A: Its value is “+”.

Q: What about the “Growth of GT3/pLYSC2” value (GT3/pLYSC2 strain; M9 agar, L-lysine 6 mM) of the same molecule?
A: Its value is “+”.

Q: What about the “Growth of GT3/pLYSC2” value (GT3/pLYSC2 strain; M9 agar, L-lysine 12 mM) of the same molecule?
A: Its value is “+”.

Q: What about the “Growth of GT3/pLYSC2” value (GT3/pLYSC2 strain; M9 agar, L-lysine 25 mM) of the same molecule?
A: The value was “+”.

Q: And the “Growth of GT3/pLYSC2” value (GT3/pLYSC2 strain; M9 agar, L-lysine 50 mM)?
A: The value was “+”.

Q: What about the “Growth of GT3/pLYSC2” value (GT3/pLYSC2 strain; M9 agar, L-lysine 100 mM) of the same molecule?
A: Its value is “±”.

Q: And the “Growth of GT3/pLYSC2” value (GT3/pLYSC2 strain; M9 agar, L-lysine 200 mM)?
A: Its value is “-”.

Q: What about the IC50 (AKIII) of the same molecule?
A: The IC50 was about 450 µM.

Q: And the inhibition at 5000 µM (AKIII; read-out: Inhibition of AKIII)?
A: Its inhibition at 5000 µM is about 100%.

B1: wild type DDPS: wild type dihydrodipicolinate synthase of E. coli, SEQ ID NO:4 (protein)
chain: MFTGSIVAIVTPMDEKGNVCRASLKKLIDYHVASGTSAIVSVGTTGESATLNHDEHADVVMMTLDLADGRIPVIAGTGANATAEAISLTQRFNDSGIVGCLTVTPYYNRPSQEGLYQHFKAIAEHTDLPQILYNVPSRTGCDLLPETVGRLAKVKNIIGIKEATGNLTRVNQIKELVSDDFVLLSGDDASALDFMQLGGHGVISVTTNVAARDMAQMCKLAAEEHFAEARVINQRLMPLHNKLFVEPNPIPVKWACKELGLVATDTLRLPMTPITDSGRETVRAALKHAGLL
Q: B1 was tested. Which “Inhibition of DDPS by L-lysine” value (DDPS) did it give?
A: The value was “suffered inhibition by L-lysine”.

B2: pdapAS24 (protein)
chain: MFTGSIVAIVTPMDEKGNVCRASLKKLIDYHVASGTSAIVSVGTTGESATLNHDEHADVVMMTLDLADGRIPVIAGTGANATAEAISLTQRFNDSGIVGCLTVTPYYNRPSQEGLYQYFKAIAEHTDLPQILYNVPSRTGCDLLPETVGRLAKVKNIIGIKEATGNLTRVNQIKELVSDDFVLLSGDDASALDFMQLGGHGVISVTTNVAARDMAQMCKLAAEEHFAEARVINQRLMPLHNKLFVEPNPIPVKWACKELGLVATDTLRLPMTPITDSGRETVRAALKHAGLL
Q: Which results are given for B2?
A: Specific activity of DDPS as compared with the wild type (DDPS; cell-free extract of JE7627 transformants): lowered a little; Inhibition of DDPS by L-lysine (DDPS): desensitized
